How the values were obtained:
Botrytis cinerea [1] = assay type: cell-based; details: 120 h, 25 ppm by volume, Vogel medium, 20° C., five days, dark, read-out: growth inhibition ratio
Fusarium graminearum = experiment: microbe, parasite or virus in culture; assay type: cell-based; details: 96 h, read-out: growth inhibition ratio
Botrytis cinerea [2] = experiment: Control test of cucumber gray mold (sprayed young cucumber seedlings); assay type: in vivo; details: 96 h, four days after inoculation; for pest or weed control at 25 ppm: 25 ppm by mass spray; for pest or weed control at 125 ppm: 125 ppm by mass spray
Method: Then, the drug liquid was sprayed onto young cucumber seedlings cultivated in a nursery pot (variety “Jihai”-based, cotyledon stage), and then air-dried. […] They were left still in a moist room at 20° C. Four days after inoculation, leaves of the young cucumber seedlings were visually observed, and the control value was calculated from the lesion area ratio in accordance with the following equation. [formula]

Venturia inaequalis = experiment: Control test of apple scab disease (sprayed young apple seedlings); assay type: in vivo; details: 125 ppm by mass spray, 12 to 14 days after inoculation
[3] = tested on: Erysiphe graminis f.sp.tritici; experiment: Control test of wheat powdery mildew disease (sprayed young wheat seedlings); assay type: in vivo; details: Blumeria graminis, 144 h, 125 ppm by mass spray, six days after inoculation
Colletotrichum acutatum = experiment: Fungicidal effect test against fungi causing apple anthracnose; details: 96 h, read-out: growth inhibition ratio
Glomerella cingulata = experiment: Fungicidal effect test against fungi causing grape ripe rot disease; details: Colletotrichum gloeosporioides, 72 h, read-out: growth inhibition ratio

COC(=O)N(Cc1ccc(C)cc1C)NC(=O)c1cc(C)ncc1Oc1cccc(Br)c1F [b-88]
≥ 75%: inhibition of growth at 25 ppm (Botrytis cinerea [1]) | inhibition of growth at 25 ppm (Fusarium graminearum) | pest or weed control at 25 ppm (Botrytis cinerea [2]) | pest or weed control at 125 ppm (Botrytis cinerea [2]) | pest or weed control at 125 ppm (Venturia inaequalis) | pest or weed control at 125 ppm [3] | inhibition of growth at 25 ppm (Colletotrichum acutatum) | inhibition of growth at 25 ppm (Glomerella cingulata)

COC(=O)N(Cc1ccc(C)cc1C)NC(=O)c1c(Oc2cccc(C3CC3)c2F)nnc2ccccc12 [b-90, Methyl 2-(3-(3-cyclopropyl-2-fluorophenoxy)cinnoline-4-carbonyl)-1-(2,4-dimethylbenzyl)hydrazine-1-carboxylate]
≥ 75%: inhibition of growth at 25 ppm (Botrytis cinerea [1]) | inhibition of growth at 25 ppm (Fusarium graminearum) | pest or weed control at 25 ppm (Botrytis cinerea [2]) | pest or weed control at 125 ppm (Botrytis cinerea [2]) | pest or weed control at 125 ppm (Venturia inaequalis) | pest or weed control at 125 ppm [3] | inhibition of growth at 25 ppm (Colletotrichum acutatum) | inhibition of growth at 25 ppm (Glomerella cingulata)

COC(=O)N(Cc1ccc(C)cc1C)NC(=O)c1cc(OC)ncc1Oc1cccc(C2CC2)c1F [b-94]
≥ 75%: inhibition of growth at 25 ppm (Botrytis cinerea [1]) | inhibition of growth at 25 ppm (Fusarium graminearum) | pest or weed control at 25 ppm (Botrytis cinerea [2]) | pest or weed control at 125 ppm (Botrytis cinerea [2]) | pest or weed control at 125 ppm (Venturia inaequalis) | pest or weed control at 125 ppm [3] | inhibition of growth at 25 ppm (Colletotrichum acutatum) | inhibition of growth at 25 ppm (Glomerella cingulata)

COC(=O)N(Cc1ccc(OC)cc1C)NC(=O)c1c(Oc2cccc(C3CC3)c2F)nnc(Cl)c1C [b-106]
≥ 75%: inhibition of growth at 25 ppm (Botrytis cinerea [1]) | inhibition of growth at 25 ppm (Fusarium graminearum) | pest or weed control at 25 ppm (Botrytis cinerea [2]) | pest or weed control at 125 ppm (Botrytis cinerea [2]) | pest or weed control at 125 ppm (Venturia inaequalis) | pest or weed control at 125 ppm [3] | inhibition of growth at 25 ppm (Colletotrichum acutatum) | inhibition of growth at 25 ppm (Glomerella cingulata)

COC(=O)N(Cc1ccc(OC)cc1C)NC(=O)c1cc(C)ncc1Oc1cccc(Br)c1 [b-107]
≥ 75%: inhibition of growth at 25 ppm (Botrytis cinerea [1]) | inhibition of growth at 25 ppm (Fusarium graminearum) | pest or weed control at 125 ppm (Botrytis cinerea [2]) | pest or weed control at 125 ppm (Venturia inaequalis) | pest or weed control at 125 ppm [3] | inhibition of growth at 25 ppm (Colletotrichum acutatum) | inhibition of growth at 25 ppm (Glomerella cingulata)

COC(=O)N(Cc1ccc(OC)cc1C)NC(=O)c1cc(C)ncc1Oc1cccc(Br)c1F [b-108]
≥ 75%: inhibition of growth at 25 ppm (Botrytis cinerea [1]) | inhibition of growth at 25 ppm (Fusarium graminearum) | pest or weed control at 25 ppm (Botrytis cinerea [2]) | pest or weed control at 125 ppm (Botrytis cinerea [2]) | pest or weed control at 125 ppm (Venturia inaequalis) | pest or weed control at 125 ppm [3] | inhibition of growth at 25 ppm (Colletotrichum acutatum) | inhibition of growth at 25 ppm (Glomerella cingulata)

COC(=O)N(Cc1ccc(C)cc1C)NC(=O)c1cc(Br)ncc1Oc1cccc(Br)c1F [b-111]
≥ 75%: inhibition of growth at 25 ppm (Botrytis cinerea [1]) | inhibition of growth at 25 ppm (Fusarium graminearum) | pest or weed control at 125 ppm (Botrytis cinerea [2]) | pest or weed control at 125 ppm (Venturia inaequalis) | pest or weed control at 125 ppm [3] | inhibition of growth at 25 ppm (Colletotrichum acutatum) | inhibition of growth at 25 ppm (Glomerella cingulata)

COC(=O)N(Cc1ccc(C)cc1C)NC(=O)c1cc(C)nnc1Oc1cccc(F)c1 [b-112]
≥ 75%: inhibition of growth at 25 ppm (Botrytis cinerea [1]) | inhibition of growth at 25 ppm (Fusarium graminearum) | pest or weed control at 125 ppm (Botrytis cinerea [2]) | pest or weed control at 125 ppm (Venturia inaequalis) | pest or weed control at 125 ppm [3] | inhibition of growth at 25 ppm (Colletotrichum acutatum) | inhibition of growth at 25 ppm (Glomerella cingulata)

COC(=O)N(Cc1ccc(C)cc1C)NC(=O)c1cc(C)nnc1Oc1cccc(Cl)c1 [b-113]
≥ 75%: inhibition of growth at 25 ppm (Botrytis cinerea [1]) | inhibition of growth at 25 ppm (Fusarium graminearum) | pest or weed control at 25 ppm (Botrytis cinerea [2]) | pest or weed control at 125 ppm (Botrytis cinerea [2]) | pest or weed control at 125 ppm (Venturia inaequalis) | pest or weed control at 125 ppm [3] | inhibition of growth at 25 ppm (Colletotrichum acutatum) | inhibition of growth at 25 ppm (Glomerella cingulata)

Cc1cccc(Oc2nnc(C)cc2C(=O)NN(Cc2ccc(C)cc2C)C(=O)O)c1 [b-117]
≥ 75%: inhibition of growth at 25 ppm (Botrytis cinerea [1]) | inhibition of growth at 25 ppm (Fusarium graminearum) | pest or weed control at 25 ppm (Botrytis cinerea [2]) | pest or weed control at 125 ppm (Botrytis cinerea [2]) | pest or weed control at 125 ppm (Venturia inaequalis) | pest or weed control at 125 ppm [3] | inhibition of growth at 25 ppm (Colletotrichum acutatum) | inhibition of growth at 25 ppm (Glomerella cingulata)

COC(=O)N(Cc1ccc(C)cc1C)NC(=O)c1c(Br)cncc1Oc1cccc(C2CC2)c1 [b-118]
≥ 75%: inhibition of growth at 25 ppm (Botrytis cinerea [1]) | inhibition of growth at 25 ppm (Fusarium graminearum) | pest or weed control at 25 ppm (Botrytis cinerea [2]) | pest or weed control at 125 ppm (Botrytis cinerea [2]) | pest or weed control at 125 ppm (Venturia inaequalis) | pest or weed control at 125 ppm [3] | inhibition of growth at 25 ppm (Colletotrichum acutatum) | inhibition of growth at 25 ppm (Glomerella cingulata)

COC(=O)N(Cc1ccc(C)cc1C)NC(=O)c1cc(C)nnc1Oc1csc(C(F)(F)F)c1 [b-124, Methyl 1-(2,4-dimethylbenzyl)-2-(6-methyl-3-((5-(trifluoromethyl)thiophen-3-yl)oxy)pyridazine-4-carbonyl)hydrazine-1-carboxylate]
≥ 75%: inhibition of growth at 25 ppm (Botrytis cinerea [1]) | inhibition of growth at 25 ppm (Fusarium graminearum) | pest or weed control at 125 ppm (Botrytis cinerea [2]) | pest or weed control at 125 ppm (Venturia inaequalis) | pest or weed control at 125 ppm [3] | inhibition of growth at 25 ppm (Colletotrichum acutatum) | inhibition of growth at 25 ppm (Glomerella cingulata)

COC(=O)N(Cc1ccc2c(c1)CCC2)NC(=O)c1cc(C)ncc1Oc1cccc(C2CC2)c1F [b-127]
≥ 75%: inhibition of growth at 25 ppm (Botrytis cinerea [1]) | inhibition of growth at 25 ppm (Fusarium graminearum) | pest or weed control at 25 ppm (Botrytis cinerea [2]) | pest or weed control at 125 ppm (Botrytis cinerea [2]) | pest or weed control at 125 ppm (Venturia inaequalis) | pest or weed control at 125 ppm [3] | inhibition of growth at 25 ppm (Colletotrichum acutatum) | inhibition of growth at 25 ppm (Glomerella cingulata)

COC(=O)N(Cc1ccc(C)cc1C)NC(=O)c1ccncc1Oc1cccc(Br)c1 [b-145]
≥ 75%: inhibition of growth at 25 ppm (Botrytis cinerea [1]) | inhibition of growth at 25 ppm (Fusarium graminearum) | pest or weed control at 25 ppm (Botrytis cinerea [2]) | pest or weed control at 125 ppm (Botrytis cinerea [2]) | pest or weed control at 125 ppm (Venturia inaequalis) | pest or weed control at 125 ppm [3] | inhibition of growth at 25 ppm (Colletotrichum acutatum) | inhibition of growth at 25 ppm (Glomerella cingulata)

COC(=O)N(Cc1ccc(OC)cc1C)NC(=O)c1ccncc1Oc1cccc(Br)c1 [b-146]
≥ 75%: inhibition of growth at 25 ppm (Botrytis cinerea [1]) | inhibition of growth at 25 ppm (Fusarium graminearum) | pest or weed control at 125 ppm (Botrytis cinerea [2]) | pest or weed control at 125 ppm (Venturia inaequalis) | pest or weed control at 125 ppm [3] | inhibition of growth at 25 ppm (Colletotrichum acutatum) | inhibition of growth at 25 ppm (Glomerella cingulata)

COC(=O)N(Cc1ccc(C)cc1C)NC(=O)c1ccncc1Oc1cccc(Br)c1F [b-147]
≥ 75%: inhibition of growth at 25 ppm (Botrytis cinerea [1]) | inhibition of growth at 25 ppm (Fusarium graminearum) | pest or weed control at 25 ppm (Botrytis cinerea [2]) | pest or weed control at 125 ppm (Botrytis cinerea [2]) | pest or weed control at 125 ppm (Venturia inaequalis) | pest or weed control at 125 ppm [3] | inhibition of growth at 25 ppm (Colletotrichum acutatum) | inhibition of growth at 25 ppm (Glomerella cingulata)

COC(=O)N(Cc1ccc(OC)cc1C)NC(=O)c1ccncc1Oc1cccc(Br)c1F [b-148]
≥ 75%: inhibition of growth at 25 ppm (Botrytis cinerea [1]) | inhibition of growth at 25 ppm (Fusarium graminearum) | pest or weed control at 25 ppm (Botrytis cinerea [2]) | pest or weed control at 125 ppm (Botrytis cinerea [2]) | pest or weed control at 125 ppm (Venturia inaequalis) | pest or weed control at 125 ppm [3] | inhibition of growth at 25 ppm (Colletotrichum acutatum) | inhibition of growth at 25 ppm (Glomerella cingulata)

COC(=O)N(Cc1ccc(C)cc1C)NC(=O)c1c(C)cncc1Oc1cccc(C2CC2)c1 [b-149]
≥ 75%: inhibition of growth at 25 ppm (Botrytis cinerea [1]) | inhibition of growth at 25 ppm (Fusarium graminearum) | pest or weed control at 25 ppm (Botrytis cinerea [2]) | pest or weed control at 125 ppm (Botrytis cinerea [2]) | pest or weed control at 125 ppm (Venturia inaequalis) | pest or weed control at 125 ppm [3] | inhibition of growth at 25 ppm (Colletotrichum acutatum) | inhibition of growth at 25 ppm (Glomerella cingulata)

COC(=O)N(Cc1ccc(C)cc1C)NC(=O)c1ccncc1Oc1cccc(C2CC2)c1F [b-150]
≥ 75%: inhibition of growth at 25 ppm (Botrytis cinerea [1]) | inhibition of growth at 25 ppm (Fusarium graminearum) | pest or weed control at 25 ppm (Botrytis cinerea [2]) | pest or weed control at 125 ppm (Botrytis cinerea [2]) | pest or weed control at 125 ppm (Venturia inaequalis) | pest or weed control at 125 ppm [3] | inhibition of growth at 25 ppm (Colletotrichum acutatum) | inhibition of growth at 25 ppm (Glomerella cingulata)
